Data on one cell line can be found in the supplement of paper PMC10307832.

Experiment in all cases: relative viability (nuclei count vs DMSO), 5 days (fraction); higher = more cells survive
Compound in experiment [1]: COc1cccc2cc(-c3nc([C@H]4CC[C@H](C(=O)O)CC4)n4ncnc(N)c34)[nH]c12 [OSI-027] + C[C@@H](Oc1cc(-c2cnn(C3CCNCC3)c2)cnc1N)c1c(Cl)ccc(F)c1Cl [Crizotinib] (partner 1 µM)
The gist of the method: (§1)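 Dosing by pin tool came one day after lung cancer cell lines were seeded in 1536-well plates, using either one drug or a fixed anchor-drug dose plus five library-drug doses (not always all listed) in √10 steps. After 5 days, nuclei were counted on 4× images. Relative viability is treated-well nuclei count divided by vehicle-well nuclei count, and values are medians of duplicate plates.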

Compound in experiment [2]: CCCS(=O)(=O)Nc1ccc(F)c(C(=O)c2c[nH]c3ncc(-c4ccc(Cl)cc4)cc23)c1F [Vemurafenib] + CC(C)C[C@H](NC(=O)[C@H](Cc1ccccc1)NC(=O)c1cnccn1)B(O)O [Bortezomib] (partner 0.002 µM)
In short, it runs like this: as §1

Compound in experiment [3]: Cc1nc(NC(=O)N2CCC[C@H]2C(N)=O)sc1-c1ccnc(C(C)(C)C(F)(F)F)c1 [Alpelisib] + CS(=O)(=O)CCNCc1ccc(-c2ccc3ncnc(Nc4ccc(OCc5cccc(F)c5)c(Cl)c4)c3c2)o1 [Lapatinib] (partner 2 µM)
The gist of the method: as §1

Compound in experiment [4]: COc1cccc2cc(-c3nc([C@H]4CC[C@H](C(=O)O)CC4)n4ncnc(N)c34)[nH]c12 [OSI-027] + N=C(N)NC(=N)NCCc1ccccc1 [Phenformin] (partner 250 µM)
The gist of the method: as §1

In the case of UMC-11, the relative viability in experiment [1] (first compound 0.01 µM) amounted to 0.499; in experiment [1] (first compound 0.03162 µM), 0.535; in experiment [1] (first compound 0.1 µM), 0.587; in experiment [1] (first compound 0.3162 µM), 0.491; in experiment [1] (first compound 1 µM), 0.378; in experiment [2] (first compound 0.03162 µM), 0.468. The relative viability turned out to be 0.713 in experiment [2] (first compound 0.1 µM); 0.57 in experiment [2] (first compound 0.3162 µM); 0.296 in experiment [2] (first compound 1 µM); 1.03 in experiment [3] (first compound 0.04 µM); 0.948 in experiment [3] (first compound 0.1265 µM); 1.01 in experiment [3] (first compound 0.4 µM). In addition, the relative viability in experiment [3] (first compound 1.265 µM) turned out to be 1.02; in experiment [3] (first compound 4 µM) it was 0.875; in experiment [4] (first compound 0.01 µM), 0.337; in experiment [4] (first compound 0.03162 µM), 0.366; in experiment [4] (first compound 0.1 µM), 0.311; in experiment [4] (first compound 0.3162 µM), 0.311. Also, in experiment [4] (first compound 1 µM), the relative viability was determined as 0.274.
